From PMC5987880 (The Journal of General Physiology, 2018)
Where “and” joins values, the source holds several entries; their conditions need not be identical. Identical values can stand only once. One block for each compound: values may come before it.

Legend:
[1] = biological target: SthK, cyclic nucleotide-gated (CNG) channel from Spirochaeta thermophila, final expression construct SthK_(Δ421–430) (Spirochaeta thermophila); assay: cross-linking
SthK [2] = biological target: T1, SthK (Spirochaeta thermophila, UniProt G0GA88); assay: Sequential-mixing stopped-flow fluorescence Tl+ flux assay with SthK liposomes; type: biochemical
T1 sequence (G0GA88 1-420): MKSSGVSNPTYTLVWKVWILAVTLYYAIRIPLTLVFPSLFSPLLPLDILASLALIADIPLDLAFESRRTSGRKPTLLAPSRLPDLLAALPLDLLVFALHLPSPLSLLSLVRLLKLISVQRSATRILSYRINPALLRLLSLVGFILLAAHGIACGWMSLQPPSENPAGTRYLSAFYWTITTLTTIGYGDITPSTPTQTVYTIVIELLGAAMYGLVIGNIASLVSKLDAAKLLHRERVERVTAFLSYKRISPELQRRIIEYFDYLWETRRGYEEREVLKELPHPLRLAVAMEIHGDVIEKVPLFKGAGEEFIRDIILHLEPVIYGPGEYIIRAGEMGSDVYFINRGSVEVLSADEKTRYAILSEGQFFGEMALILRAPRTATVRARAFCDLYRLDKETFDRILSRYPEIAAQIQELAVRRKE

SthK [3] = biological target: T1, SthK; details: at 100 mV; ref Brams et al. (2014); cited from earlier work
SthK [4] = biological target: T1, SthK; assay: 86Rb+ flux; type: biochemical; details: 200 µM cyclic nucleotide, 5:3:2 DOPC:POPG:cardiolipin liposomes
SthK [5] = biological target: T1, SthK; assay: Single-channel recordings of purified SthK in horizontal lipid bilayers; type: biochemical
isolated CNBD of MloK1 = details: read-out: Kd for isolated CNBD of MloK1; ref Cukkemane et al., 2007; cited from earlier work
HCN4 = details: read-out: Kd for HCN4; ref Akimoto et al., 2014; cited from earlier work

- stoichiometry N [1]: 4
Compound: SthK, cyclic nucleotide-gated (CNG) channel from Spirochaeta thermophila, final expression construct SthK_(Δ421–430) (natural protein)

- Time to maximum activation of SthK (SthK [2]; 200 µM cAMP): 2 s and 1 to 2 s
- Activation time constant τ1 (SthK [2]; 200 µM cAMP, delay 0.015-10 s, sum of two exponentials (amplitude 0.45)): ≈ 0.05 s
- Activation time constant τ2 (SthK [2]; 200 µM cAMP, delay 0.015-10 s, sum of two exponentials (amplitude 0.55)): ≈ 1.04 s
- Slow activation phase (as stated in the Discussion) (SthK [2]; activation kinetics of SthK): ~2 s
- 86Rb+ uptake through SthK liposomes (SthK [4]): robust cAMP-dependent activity
- Open probability Po at 0 mV (SthK [5]; cAMP alone, 0 mV): ≈ 0.1
- Hill coefficient nH, bilayer recordings (SthK [5]; open probability at 100 mV (Eq. 10)): 3
Compound: Nc1ncnc2c1ncn2[C@@H]1O[C@@H]2COP(=O)(O)O[C@H]2[C@H]1O [cAMP, cyclic adenosine monophosphate]
- Open probability Po in oocytes (SthK [3]): ≈ 0.14

- Open probability Po with cGMP (SthK [5]; cGMP alone): < 0.003
Compound: Nc1nc2c(ncn2[C@@H]2O[C@@H]3COP(=O)(O)O[C@H]3[C@H]2O)c(=O)[nH]1 [cGMP, cyclic guanosine monophosphate]

Compound: Nc1ncnc2c1nc(SCCNc1ccc([N+](=O)[O-])c3nonc13)n2[C@@H]1O[C@@H]2COP(=O)(O)O[C@H]2[C@H]1O [fcAMP, 8-NBD-cAMP]
- Kd (isolated CNBD of MloK1): ~0.0159 µM
- Kd (HCN4): 5 µM
